Literature values, collected in patent US6369046B1, “Methods for treating dementia” (The Board of Trustees of the Leland Stanford Junior …, priority 1998, dated 2002).

Experiments:
[1] = target: T1, glucocorticoid (GR) receptor (Homo sapiens, UniProt P04150); settings: Bocquel (1993) for RU009; cited from earlier work
T1 sequence (P04150 1-777): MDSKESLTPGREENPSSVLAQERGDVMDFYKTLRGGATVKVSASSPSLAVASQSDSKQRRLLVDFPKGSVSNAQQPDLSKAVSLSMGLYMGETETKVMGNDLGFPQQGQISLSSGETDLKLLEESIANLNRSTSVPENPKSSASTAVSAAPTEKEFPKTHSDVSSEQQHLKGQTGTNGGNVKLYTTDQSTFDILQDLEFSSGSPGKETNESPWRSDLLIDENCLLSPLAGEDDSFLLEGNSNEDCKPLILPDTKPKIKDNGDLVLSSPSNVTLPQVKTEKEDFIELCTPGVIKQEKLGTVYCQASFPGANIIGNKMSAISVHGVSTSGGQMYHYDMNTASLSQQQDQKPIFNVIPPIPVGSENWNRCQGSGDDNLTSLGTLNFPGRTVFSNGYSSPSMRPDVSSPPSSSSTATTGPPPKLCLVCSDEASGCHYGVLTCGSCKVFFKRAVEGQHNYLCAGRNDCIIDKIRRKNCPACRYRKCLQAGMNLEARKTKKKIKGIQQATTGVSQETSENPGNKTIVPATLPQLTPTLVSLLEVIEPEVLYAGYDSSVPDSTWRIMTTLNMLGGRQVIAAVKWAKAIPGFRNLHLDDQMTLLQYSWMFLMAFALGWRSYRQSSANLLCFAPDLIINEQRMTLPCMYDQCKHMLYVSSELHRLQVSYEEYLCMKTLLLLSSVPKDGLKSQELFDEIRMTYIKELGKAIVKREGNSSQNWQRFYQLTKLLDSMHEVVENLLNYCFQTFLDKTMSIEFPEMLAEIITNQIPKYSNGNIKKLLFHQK

[2] = Kawai (1989) supra; cited from earlier work
[3] = target: T2, progesterone receptor (Homo sapiens, UniProt P06401); settings: cited from earlier work
T2 sequence (P06401 1-933): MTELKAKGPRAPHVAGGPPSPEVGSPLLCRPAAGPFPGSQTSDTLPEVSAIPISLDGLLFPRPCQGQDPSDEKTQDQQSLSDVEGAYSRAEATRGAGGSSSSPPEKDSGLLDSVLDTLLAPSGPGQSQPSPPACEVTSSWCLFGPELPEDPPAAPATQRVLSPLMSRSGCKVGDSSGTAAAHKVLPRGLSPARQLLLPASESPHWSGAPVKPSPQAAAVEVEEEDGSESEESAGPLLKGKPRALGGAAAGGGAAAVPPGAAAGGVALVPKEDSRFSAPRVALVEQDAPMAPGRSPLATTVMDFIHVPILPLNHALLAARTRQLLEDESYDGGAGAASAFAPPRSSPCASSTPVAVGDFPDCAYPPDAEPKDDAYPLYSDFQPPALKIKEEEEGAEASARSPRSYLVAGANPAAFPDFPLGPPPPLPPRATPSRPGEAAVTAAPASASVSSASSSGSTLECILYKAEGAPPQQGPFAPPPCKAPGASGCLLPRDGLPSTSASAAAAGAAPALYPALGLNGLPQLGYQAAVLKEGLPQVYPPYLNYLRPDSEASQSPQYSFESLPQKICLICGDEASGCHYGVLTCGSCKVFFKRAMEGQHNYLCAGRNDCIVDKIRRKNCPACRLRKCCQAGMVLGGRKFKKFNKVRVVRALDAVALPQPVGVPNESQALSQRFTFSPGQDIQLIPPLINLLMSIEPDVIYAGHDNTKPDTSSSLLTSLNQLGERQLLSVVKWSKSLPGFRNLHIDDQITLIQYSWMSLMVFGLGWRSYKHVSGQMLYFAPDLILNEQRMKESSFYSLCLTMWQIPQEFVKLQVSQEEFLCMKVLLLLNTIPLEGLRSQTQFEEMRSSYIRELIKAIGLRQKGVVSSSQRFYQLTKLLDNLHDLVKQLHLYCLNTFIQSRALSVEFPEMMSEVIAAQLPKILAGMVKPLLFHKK

Compound	GR antagonism [1]	fraction of the daily dose excreted in the urine [2]	progesterone receptor antagonism [3]
CC#C[C@]1(O)CC[C@H]2[C@@H]3CCC4=CC(=O)CCC4=C3[C@@H](c3ccc(OCCN(C)C)cc3)C[C@@]21C [RU009, 11-beta-(4-dimethyl-aminoethoxyphenyl)-1 7-alpha-(propynyl-17 beta-hydroxy-4,9-estradien-3-one)]	GR antagonist effects		
CC#C[C@]1(O)CC[C@H]2[C@@H]3CCC4=CC(=O)CCC4=C3[C@@H](c3ccc(N(C)C)cc3)C[C@@]21C [mifepristone, 17-beta-hydroxy-11-beta-(4-dimethyl-aminophenyl)-17-alpha-(1-propynyl)-estra-4,9-dien-3-one]	powerful antagonist	less than 0.5 % of the daily dose	powerful antagonist
